Experimental data reported in article PMC9862096, “Interaction of a Homologous Series of Amphiphiles with P-glycoprotein in a Membrane Environment—Contributions of Polar and Non-Polar Interactions” (Pharmaceutics, 2023).
pKi: −log10 of the molar value.

Experiments:
mP–gp = target: T1, mP–gp (Mus musculus, UniProt P21447); assay: Photolabeling of P–gp with [125I]-IAAP / IAAP displacement; type: binding; conditions: for pKi: Equation (S2), total concentrations, native membranes 1.0 mg/mL, read-out: dissociation constant, competitive inhibition of IAAP binding
T1 construct: made in house; host or cells: High-Five insect cells (Invitrogen), recombinant baculovirus; total membrane vesicles
T1 sequence (P21447 whole entry): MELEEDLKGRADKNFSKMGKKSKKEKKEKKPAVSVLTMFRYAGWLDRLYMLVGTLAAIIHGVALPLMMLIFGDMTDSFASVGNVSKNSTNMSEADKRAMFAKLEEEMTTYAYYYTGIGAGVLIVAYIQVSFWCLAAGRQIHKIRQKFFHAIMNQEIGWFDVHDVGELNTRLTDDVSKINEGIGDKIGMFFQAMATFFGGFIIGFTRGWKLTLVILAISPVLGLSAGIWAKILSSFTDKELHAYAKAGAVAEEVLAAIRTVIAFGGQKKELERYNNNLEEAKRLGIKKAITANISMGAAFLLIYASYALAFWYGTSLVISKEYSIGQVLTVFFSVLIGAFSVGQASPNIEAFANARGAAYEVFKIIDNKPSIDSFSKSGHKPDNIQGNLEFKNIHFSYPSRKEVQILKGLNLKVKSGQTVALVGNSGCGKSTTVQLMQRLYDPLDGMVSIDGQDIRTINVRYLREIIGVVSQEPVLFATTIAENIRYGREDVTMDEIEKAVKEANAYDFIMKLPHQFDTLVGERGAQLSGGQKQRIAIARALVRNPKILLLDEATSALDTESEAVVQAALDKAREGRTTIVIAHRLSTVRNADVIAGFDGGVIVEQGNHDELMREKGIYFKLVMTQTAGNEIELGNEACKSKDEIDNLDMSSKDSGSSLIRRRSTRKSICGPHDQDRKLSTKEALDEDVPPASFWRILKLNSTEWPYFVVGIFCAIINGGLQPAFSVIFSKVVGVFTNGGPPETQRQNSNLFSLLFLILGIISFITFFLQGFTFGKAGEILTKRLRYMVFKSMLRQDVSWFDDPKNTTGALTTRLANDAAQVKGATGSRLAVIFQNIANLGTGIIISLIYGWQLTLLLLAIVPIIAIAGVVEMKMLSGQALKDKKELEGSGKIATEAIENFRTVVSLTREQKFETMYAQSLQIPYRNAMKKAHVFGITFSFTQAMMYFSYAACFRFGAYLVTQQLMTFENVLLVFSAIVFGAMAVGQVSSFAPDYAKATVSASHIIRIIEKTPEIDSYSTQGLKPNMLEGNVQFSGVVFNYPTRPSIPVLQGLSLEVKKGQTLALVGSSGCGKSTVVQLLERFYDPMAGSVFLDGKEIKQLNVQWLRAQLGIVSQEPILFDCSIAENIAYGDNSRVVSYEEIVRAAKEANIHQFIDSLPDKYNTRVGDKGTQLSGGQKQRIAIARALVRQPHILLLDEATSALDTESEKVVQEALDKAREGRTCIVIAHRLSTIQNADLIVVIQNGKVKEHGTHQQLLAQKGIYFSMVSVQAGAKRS
Protocol: The native membranes of High-Five insect cells expressing mP–gp (1.0 mg/mL) were incubated at room temperature with the indicated concentrations of the inhibitor for 5 min. IAAP (5 to 7 nM) was later added, and the reaction mixture was further incubated for 5 min under subdued light. The samples were photocross-linked with 366 nm UV light for 10 min at room temperature, followed by electrophoresis and quantification, as described previously. The raw data are shown in the Supplementary Information (Figure S4). The results were first analyzed with the usual equation, considering the total concentration of IAAP and NBD amphiphile, as well as competitive inhibition of IAAP binding, see Supplementary Information (Equation (S2)). The dissociation constant considered for IAAP was taken from the literature, 412 nM [15]. The results were also analyzed with a formalism derived in this manuscript considering the distribution of the NBD amphiphile in the distinct environments (aqueous phase, lipid bilayer, and P–gp), the distribution of IAAP between the aqueous media and P–gp, and several equal and independent binding sites in P–gp’s binding pocket, Equation (10).
In this assay, in addition to the binding of the NBD amphiphiles to P–gp binding pocket, it is also necessary to consider the binding of IAAP. The concentration of IAAP used in the assay (5 nM) is several orders of magnitude smaller than that of the amphiphiles in study, and it is also smaller than the total concentration of P–gp (59 nM). Therefore, Equation (8) may be used to calculate the concentration of free ligand and protein. The fraction of IAAP bound to P–gp may then be calculated from Equation (10), where P^* is the concentration of P–gp available for IAAP binding. (10) IP/IT=−b−b^2−4ac/2aa=1; b=−1+KdIAAP/IT+P^*/IT; c=P^*/IT
The number of binding sites in P–gp binding pocket was varied from 1 to 5, and three situations were considered in the analysis: (i) full inhibition of IAAP binding when at least one NBD amphiphile is in the P–gp binding pocket ( i≥1 ), corresponding to P^*=P; (ii) inhibition of IAAP binding only when P–gp is fully saturated ( i=n ), corresponding to P^*=P+∑i=1n−1PLi; and (iii) an intermediate situation with IAAP displacement for i≥n−1 , corresponding to P^*=P+∑i=1n−2PLi .
The displacement of IAAP from P–gp binding pocket was calculated from Equation (11), where IP0 is the concentration of IAAP bound to P–gp in the absence of the NBD amphiphiles. (11) IAAP displacement %=100IP0−IP/IP0

[1] = Calculation of local concentrations of the amphiphiles in membrane and aqueous medium from partition coefficients; conditions: for fraction associated with the lipid bilayer of the native membrane: 0.107 mg of protein per mL; for concentration associated with the membrane: total concentration 60 µM; for fraction associated with the membranes: IAAP displacement conditions, 1 mg of protein per mL; for fraction of amphiphile in the membrane associated with proteins: low amphiphile concentrations, away from saturation; for concentration in the aqueous phase: total amphiphile 50 µM, partition to native membranes
Source text: A major limitation of the models used to analyze the effects on P–gp’s ATPase activity and IAAP displacement is the use of global concentrations. Interaction of the amphiphiles with P–gp is considered to occur from the membrane and, therefore, what is relevant is the amphiphile concentration in the lipid bilayer where P–gp is embedded. The importance of using local concentration in the analysis of the interaction of small molecules with membrane proteins has been pointed out before (e.g., [33, 35, 37, 46, 84, 85]), but, unfortunately, it is still overlooked. The local concentrations may be calculated from the partition coefficient of the amphiphiles between the aqueous media and the model membranes with the relevant lipid composition. […] An intermediate affinity is obtained for NBD–LysoMPE in spite of its longer aliphatic chain. This is due to its bigger and much polar (charged) head group. From the partition coefficients one may calculate the local concentration of amphiphile in the membrane for a given total concentration of amphiphile. At the concentration of native membranes used in the ATPase assays (0.107 mg of protein per mL), 2% of the NBD–C4 is associated with the lipid bilayer of the native membrane (see Supplementary Information, Section S10 for details). As expected, for the more lipophilic amphiphiles, the fraction associated with the lipid bilayer increases, being 53% for NBD–C8 and 13% for NBD–LysoMPE. In the IAAP displacement experiments, the amount of native membranes is almost 10 times higher (1 mg of protein per mL), leading to 18% of NBD–C4 associated with the membranes, and 91% and 58% for the case of NBD–C8 and NBD–LysoMPE, respectively.
S10 – Calculation of the local concentration of the amphiphiles in the membrane and in the […]
The concentration of phospholipids (PL) in a solution containing native membranes is calculated from the concentration of protein and the ratio of PLs to prot eins (0.57 g PL/g P , average PL molar mass of 750 g/mol). The volume of the lipid bilayer (VLb) is then calculated considering a density of 1 g/cm3 for the phospholipids.
Typical values for the conditions of the ATPase activity assays are given be low:
The volume occupied by proteins in the membrane (VP) was calculated considering a density of 1.2 g/cm3 (being 8.9 × 10‐5 × VT, and the total volume of native membranes is 1.5 × 10‐4 × VT.
The IAAP displacement assay was performed with a protein concentration of 1 g/L, leading to proportionally higher volumes of the lipid bilayer and proteins.
Knowing the partition coefficients of the ligand one may calculate the fractions in each medium: […]
The fraction of amphiphile in the membrane (lipid bilayer plus membrane proteins), is given by:
MLbP PLKVKV KVWL→→ →b WP WM+ fffVK VK VVK VK VLLL WL=+= =bPP PM , WP L++ ++→→ →→b WP WLbP PWP Lb WPbP P where WMK → is the partition coeff icient obtained experimentally between the aqueous media P and the native membranes.
The above equations are only valid if the system is away from saturation (at low concentrations of amphiphiles relative to the binding agents). At relatively high amphiphile concentrations, the proteins may become saturated, leading to a decrease in the apparent partition coefficient and to an increase in the relative fraction of amphiphile associated with the lipid bilayer.
From the above equations one may calculate directly the concentration of amphiphile in each […]
To evaluate if the aqueous medium is saturated, this concentration sho uld be co mpared with the ligand critical aggregation concentration. P ossible perturbation of the lipid bilayer is best evaluated from the mo la r ratio of lipids to ligand bound (PL:L)

[2] = cited from earlier work

SMILES | pKi (mP–gp) | number of binding sites n giving agreement between the two estimates of the partition coefficient (mP–gp; re-analysis of IAAP displacement, IAAP displaced for i ≥ n−1) | fraction associated with the lipid bilayer of the native membrane ([1]; ATPase assay conditions) | concentration associated with the membrane ([1]; ATPase assay conditions) | concentration associated with the membrane ([1]; IAAP assay conditions (membrane 10-fold higher)) | fraction associated with the membranes [1] | fraction of amphiphile in the membrane associated with proteins [1] | LogKP, association with POPC bilayers [2] | concentration in the aqueous phase ([1]; ATPase assay conditions) | concentration in the aqueous phase ([1]; IAAP assay conditions) | LogKP, partition coefficient for POPC bilayers [2]
CCCCNc1ccc([N+](=O)[O-])c2nonc12 [NBD–C4] | 4.85 | 5 | 2% | 1.4 µM | 11 µM | 18% | 72% | 2.99 | – | – | –
CCCCCCCCNc1ccc([N+](=O)[O-])c2nonc12 [NBD–C8] | 5.40 | – | 53% | – | – | 91% | 15% | 4.67 | 21 µM | 4 µM | –
CCCCCCCCCCCCCC(=O)OCC(O)COP(=O)(O)OCCNc1ccc([N+](=O)[O-])c2nonc12 (stereo not drawn) [NBD–LysoMPE] | 4.64 | – | 13% | – | – | 58% | – | – | 12 µM | 2 µM | 4.2
